# Laboratory results published in patent US6809112B2, “Method of treating sexual disturbances” (priority 1999, dated 2004).
compound,measurement,value
CN[C@@H]1Cc2cccc3[nH]c(=S)n(c23)C1.O=C(O)CC(O)C(=O)O,melting point,195 to 196 °C
